Assay results taken from PMC7219108, “Pisum sativum Defensin 1 Eradicates Mouse Metastatic Lung Nodules from B16F10 Melanoma Cells” (International Journal of Molecular Sciences, 2020).

Legend:
[1] = tested on: B16F10 cells; assay: Glucosylceramide depletion study on Psd1 entrance in B16F10 cells; assay type: cell-based, murine; conditions: 20 µM PPMP, 1 h, without Psd1
Protocol: Figure 4 GlcCer reduction inhibits the entrance of FITC-Psd1 into B16F10 cancer cells. B16F10 cells (1.5 × 10^4) were incubated with or without 20 µM PPMP for 1 h followed by treatment with or without 9 µM FITC-Psd1 for 2 h. Fixed cells were stained with Vybrant™ Alexa Fluor™ 594 and DAPI. (a) B16F10 cells without treatments (−PPMP, −Psd1); (b) B16F10 cells treated with Psd1 for 2 h (–PPMP, +Psd1 (2 h)); (c) B16F10 cells treated with PPMP (+PPMP, −Psd1); (d) B16F10 cells treated with PPMP plus Psd1 (+PPMP, +Psd1 (2 h)). Pictures were acquired at 40× magnification. Inset zoom images are at 100× magnification. At least two experiments were performed independently.
B16F10 cells (1.5 × 10^4) in cover glass were previously incubated with 20 µM DL-threo-1-phenyl-2-palmitoylamino-3-morpholino-1-propanol (PPMP, Sigma-Aldrich Brasil, São Paulo, Brazil) inhibitor for 60 min followed by treatment with 9 µM Psd1 for 30 min or 2 h. The cells were fixed on glass slides with 4% paraformaldehyde plus 4% sucrose for 10 min and then stained with a Vybrant Alexa Fluor 594 Lipid Raft Labeling Kit (Thermo Fisher Scientific Inc, Maryland, USA). Briefly, 1.25 µg/mL cholera toxin subunit B (CT-B) and 160× diluted anti-CT-B were incubated with cells for 10 min each at 4 °C. Three PBS wash steps were performed between each stage. […]

[2] = tested on: B16F10 cells; assay: SYTOXGreen uptake (membrane permeabilization), B16F10 cells; assay type: cell-based, murine; conditions: 0.0001% H2O2, 30 min
Protocol: Figure 2 Psd1 promotes B16F10 live cell membrane permeabilization as monitored by SYTOX Green fluorescence. (A) Psd1 untreated and hydrogen peroxide-treated B16F10 cells. (B) A total of 1.5 × 10^4 B16F10 cells were incubated with 3 or 50 µM Psd1 for 30 min. (C) 1.5 × 10^4 B16F10 cells were incubated with 50 µM Psd1 for 1 h. All experiments were performed at 37 °C. Nucleus staining is shown in green (SYTOXGreen), and mitochondria are shown in red (MitoTracker Red CMXRos). Images are shown at 20× magnification. […] (E) Psd1 induces apoptosis in B16F10 cells. B16F10 cells were treated with 50 µM Psd1 for 24 h and labeled with propidium iodide, and the DNA content was analyzed by flow cytometry for the sub-G0/G1 profile. At least two independent experiments were performed. TEXT PRINTED IN THE PICTURE: (E) Control: Sub-G1: 4.4% | (E) Psd1: Sub-G1: 60.6% (50μM)
Images were obtained in the X, Y, and Z planes of the image, giving the image a 3-dimensional depth (Z-stack) at 100× magnification with a Zeiss Cell Observer Yokogawa Spinning Disk confocal microscope (Cell Observed SD, Carl-Zeiss, Oberkochen, Germany) located in the Microscopia Óptica de Luz Gustavo de Oliveira Castro (Plamol) platform in Universidade Federal do Rio de Janeiro. To measure the mean fluorescence intensity (MFI), Zen Lite Blue (Carl-Zeiss, Oberkochen, Germany) software was used. On average, thirty cells per field were analyzed in fourteen fields by experiments. Then, the region of interest (ROI), specifically the nucleus and mitochondria, was tagged on the cells photographed for fluorescence analysis, which is given by the software from the intensity of the pixels. Subsequently, the statistical test was performed using GraphPad Prism version 7.4, and the values presented are averages with the corresponding standard deviations (SDs).
B16F10 cells were trypsinized and counted, and 1.5 × 10^4 cells/well in DMEM containing 0.1% (w/v) bovine serum albumin BSA were plated in a cell-view glass bottom culture dish with four compartments (Thermo Fisher Scientific Inc, Maryland, USA) and then incubated at 37 °C overnight to adhere. Post-treatment, the cells were treated with 3 or 50 µM Psd1 for 30 or 60 min and maintained at the same temperature. Cells treated with only water or 0.0001% H2O2 for 30 min were used as the negative and positive controls, respectively. Washes with saline were carried out between the additions of each probe followed by incubation at room temperature. The cells were incubated with 1 µL of SG, 1.5 µL of MitoTracker Red CMXRos, and 2 µL of DAPI for 10, 20, and 10 min, respectively. The fluorescent images were acquired by confocal microscopy.

[3] = molecular target: T1, recombinant cyclin F-GST; assay: SPR; Biacore X, CM5 chip, 25 °C; cyclin F-GST immobilised by amine coupling (10 mM sodium acetate pH 4.0); Psd1 10-240 µM injected at 15 µL/min for 4 min in 10 mM HEPES, 150 mM NaCl, pH 7.4; Psd1-GST curves subtracted; global fit, 1:1 Langmuir model; conditions: both partners purified
T1 chain: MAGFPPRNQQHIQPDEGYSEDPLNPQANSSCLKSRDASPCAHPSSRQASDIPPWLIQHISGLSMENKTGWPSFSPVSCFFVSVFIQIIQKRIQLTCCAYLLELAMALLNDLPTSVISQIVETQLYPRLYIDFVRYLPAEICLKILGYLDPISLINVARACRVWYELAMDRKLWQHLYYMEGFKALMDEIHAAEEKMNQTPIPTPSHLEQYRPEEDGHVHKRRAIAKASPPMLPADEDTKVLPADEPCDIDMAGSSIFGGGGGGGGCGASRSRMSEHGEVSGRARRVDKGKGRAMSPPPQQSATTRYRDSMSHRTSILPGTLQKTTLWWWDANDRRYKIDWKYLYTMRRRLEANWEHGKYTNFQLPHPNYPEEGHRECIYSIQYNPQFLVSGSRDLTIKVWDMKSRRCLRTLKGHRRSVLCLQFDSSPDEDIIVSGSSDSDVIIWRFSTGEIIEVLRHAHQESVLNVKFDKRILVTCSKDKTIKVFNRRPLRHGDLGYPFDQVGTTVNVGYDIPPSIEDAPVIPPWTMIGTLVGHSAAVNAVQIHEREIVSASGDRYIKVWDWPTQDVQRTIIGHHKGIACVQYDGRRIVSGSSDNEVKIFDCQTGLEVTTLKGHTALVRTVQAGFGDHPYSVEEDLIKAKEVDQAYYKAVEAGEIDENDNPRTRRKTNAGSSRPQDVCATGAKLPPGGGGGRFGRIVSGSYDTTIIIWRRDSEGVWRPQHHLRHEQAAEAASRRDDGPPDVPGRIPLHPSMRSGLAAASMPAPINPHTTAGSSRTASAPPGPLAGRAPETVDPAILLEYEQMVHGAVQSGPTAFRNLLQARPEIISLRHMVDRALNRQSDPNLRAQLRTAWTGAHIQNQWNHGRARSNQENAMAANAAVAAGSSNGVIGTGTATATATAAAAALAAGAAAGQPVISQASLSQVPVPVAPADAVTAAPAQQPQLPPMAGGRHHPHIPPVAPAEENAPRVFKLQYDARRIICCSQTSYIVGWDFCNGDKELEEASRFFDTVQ

## CCCCCCCCCCCCCCCC(=O)N[C@H](CN1CCOCC1)[C@H](O)c1ccccc1 (racemic) [PPMP, DL-threo-1-phenyl-2-palmitoylamino-3-morpholino-1-propanol]
[1]
  CT-B / Alexa Fluor 594 red signal (lipid raft; GlcCer): significant reduction in the bright red signal

## OO [hydrogen peroxide, reference compound]
[2]
  SYTOXGreen fluorescence, positive control: green fluorescence signal increased significantly

B1: Pisum sativum defensin 1 (peptide, UniProt P81929 1-46, looked up)
chain: KTCEHLADTYRGVCFTNASCDDHCKNKAHLISGTCHNWKCFCTQNC
notes: Pisum sativum defensin 1 (Psd1), 46-amino acid residue plant defensin from pea seeds; also called Psd1; pea defensin Psd1; source: expressed and purified as previously described [11], first step HiPrep 26/60 Sephacryl S-100 HR; the abstract says Psd1 can be expressed in Pichia pastoris
[3]
  Kd: 1500 µM
